Organism: Rattus norvegicus
Test: Open TG-GATES - Regimen: Daily Repeat
Format: toxicity, organism-based, Sprague-Dawley
Parameters: regimen Daily Repeat, gender Male, age 6 weeks
Settings: in vivo, po, 300 mg/kg, route gavage, dose level Middle; for APTT / Bas / Eos / Fbg / Hb / Ht / Lym / MCH / MCHC / MCV / Mono / Neu / PT / Plat / RBC / Ret / WBC: tissue Blood; for KIDNEY_L / KIDNEY_R / KIDNEY_TOTAL: tissue Kidney; for LIVER: tissue Liver; for A/G / ALP / ALT / AST / BUN / CRE / Ca / Cl / DBIL / GLC / IP / K / LDH / Na / PL / RALB / TBIL / TC / TG / TP / gamma-GTP: tissue Plasma

O=C(OC[C@H]1O[C@@H](OC(=O)c2cc(O)c(O)c(OC(=O)c3cc(O)c(O)c(O)c3)c2)[C@H](OC(=O)c2cc(O)c(O)c(OC(=O)c3cc(O)c(O)c(O)c3)c2)[C@@H](OC(=O)c2cc(O)c(O)c(OC(=O)c3cc(O)c(O)c(O)c3)c2)[C@@H]1OC(=O)c1cc(O)c(O)c(OC(=O)c2cc(O)c(O)c(O)c2)c1)c1cc(O)c(O)c(OC(=O)c2cc(O)c(O)c(O)c2)c1 [TANNIC ACID]
TERMINAL_BW (72 h, time 3 day): 215.8 g
APTT (72 h, time 3 day): 16.1 s
Bas (72 h, time 3 day): 0%
Eos (72 h, time 3 day): 1%
Fbg (72 h, time 3 day): 240.8 mg/dL
Hb (72 h, time 3 day): 13.1 g/dL
Ht (72 h, time 3 day): 39.3%
Lym (72 h, time 3 day): 76.8%
MCH (72 h, time 3 day): 21.6 pg
MCHC (72 h, time 3 day): 33.3%
MCV (72 h, time 3 day): 64.9 fL
Mono (72 h, time 3 day): 10%
Neu (72 h, time 3 day): 12.4%
PT (72 h, time 3 day): 11.5 s
Plat (72 h, time 3 day): 118.8 x10_4/uL
RBC (72 h, time 3 day): 606.2 x10_4/ul
Ret (72 h, time 3 day): 7.7%
WBC (72 h, time 3 day): 77.2 x10_2/uL
KIDNEY_L (72 h, time 3 day): 1 g
KIDNEY_R (72 h, time 3 day): 1 g
KIDNEY_TOTAL (72 h, time 3 day): 1.9 g
LIVER (72 h, time 3 day): 10.9 g
A/G (72 h, time 3 day): 2.1
ALP (72 h, time 3 day): 808.4 IU/L
ALT (72 h, time 3 day): 35 IU/L
AST (72 h, time 3 day): 62.8 IU/L
BUN (72 h, time 3 day): 17.8 mg/dL
CRE (72 h, time 3 day): 0.5 mg/dL
Ca (72 h, time 3 day): 10.9 mg/dL
Cl (72 h, time 3 day): 103.4 meq/L
DBIL (72 h, time 3 day): 0.004 mg/dL
GLC (72 h, time 3 day): 207.6 mg/dL
IP (72 h, time 3 day): 8.7 mg/dL
K (72 h, time 3 day): 4.6 meq/L
LDH (72 h, time 3 day): 83 IU/L
Na (72 h, time 3 day): 139 meq/L
PL (72 h, time 3 day): 159.2 mg/dL
RALB (72 h, time 3 day): 3.8 g/dL
TBIL (72 h, time 3 day): 0.3 mg/dL
TC (72 h, time 3 day): 84.6 mg/dL
TG (72 h, time 3 day): 109.2 mg/dL
TP (72 h, time 3 day): 5.6 g/dL
gamma-GTP (72 h, time 3 day): 0.6 IU/L
TERMINAL_BW ([…], time 7 day): 250.4 g
TERMINAL_BW ([…], time 14 day): 315.8 g
TERMINAL_BW ([…], time 28 day): 397.8 g
APTT ([…], time 7 day): 17.1 s
Bas ([…], time 7 day): 0%
Eos ([…], time 7 day): 1.4%
Fbg ([…], time 7 day): 226 mg/dL
Hb ([…], time 7 day): 13.4 g/dL
Ht ([…], time 7 day): 40.6%
Lym ([…], time 7 day): 81.2%
MCH ([…], time 7 day): 21.3 pg
MCHC ([…], time 7 day): 33.1%
MCV ([…], time 7 day): 64.2 fL
Mono ([…], time 7 day): 4.8%
Neu ([…], time 7 day): 12.8%
PT ([…], time 7 day): 10.9 s
Plat ([…], time 7 day): 123.2 x10_4/uL
RBC ([…], time 7 day): 631.8 x10_4/ul
Ret ([…], time 7 day): 6.5%
WBC ([…], time 7 day): 103.7 x10_2/uL
APTT ([…], time 14 day): 16.7 s
Bas ([…], time 14 day): 0%
Eos ([…], time 14 day): 1.2%
Fbg ([…], time 14 day): 261.2 mg/dL
Hb ([…], time 14 day): 13.7 g/dL
Ht ([…], time 14 day): 41.1%
Lym ([…], time 14 day): 75.4%
MCH ([…], time 14 day): 20.7 pg
MCHC ([…], time 14 day): 33.4%
MCV ([…], time 14 day): 62.1 fL
Mono ([…], time 14 day): 8%
Neu ([…], time 14 day): 15.4%
PT ([…], time 14 day): 11.5 s
Plat ([…], time 14 day): 123.3 x10_4/uL
RBC ([…], time 14 day): 662.6 x10_4/ul
Ret ([…], time 14 day): 5.5%
WBC ([…], time 14 day): 101.9 x10_2/uL
APTT ([…], time 28 day): 16.6 s
Bas ([…], time 28 day): 0%
Eos ([…], time 28 day): 1.8%
Fbg ([…], time 28 day): 232.8 mg/dL
Hb ([…], time 28 day): 15 g/dL
Ht ([…], time 28 day): 45.2%
Lym ([…], time 28 day): 77.8%
MCH ([…], time 28 day): 19.6 pg
MCHC ([…], time 28 day): 33.2%
MCV ([…], time 28 day): 59.1 fL
Mono ([…], time 28 day): 6.2%
Neu ([…], time 28 day): 14.5%
PT ([…], time 28 day): 11.9 s
Plat ([…], time 28 day): 113.3 x10_4/uL
RBC ([…], time 28 day): 765.2 x10_4/ul
Ret ([…], time 28 day): 3%
WBC ([…], time 28 day): 112.2 x10_2/uL
KIDNEY_L ([…], time 7 day): 1 g
KIDNEY_R ([…], time 7 day): 1 g
KIDNEY_TOTAL ([…], time 7 day): 2.1 g
KIDNEY_L ([…], time 14 day): 1.4 g
KIDNEY_R ([…], time 14 day): 1.3 g
KIDNEY_TOTAL ([…], time 14 day): 2.7 g
KIDNEY_L ([…], time 28 day): 1.4 g
KIDNEY_R ([…], time 28 day): 1.4 g
KIDNEY_TOTAL ([…], time 28 day): 2.9 g
LIVER ([…], time 7 day): 12.2 g
LIVER ([…], time 14 day): 14.7 g
LIVER ([…], time 28 day): 17 g
A/G ([…], time 7 day): 1.6
ALP ([…], time 7 day): 926.8 IU/L
ALT ([…], time 7 day): 35.8 IU/L
AST ([…], time 7 day): 62.2 IU/L
BUN ([…], time 7 day): 19.4 mg/dL
CRE ([…], time 7 day): 0.6 mg/dL
Ca ([…], time 7 day): 10.8 mg/dL
Cl ([…], time 7 day): 103 meq/L
DBIL ([…], time 7 day): 0.016 mg/dL
GLC ([…], time 7 day): 205.6 mg/dL
IP ([…], time 7 day): 7.9 mg/dL
K ([…], time 7 day): 4.5 meq/L
LDH ([…], time 7 day): 98.6 IU/L
Na ([…], time 7 day): 137.4 meq/L
PL ([…], time 7 day): 154.6 mg/dL
RALB ([…], time 7 day): 3.7 g/dL
TBIL ([…], time 7 day): 0.4 mg/dL
TC ([…], time 7 day): 81.2 mg/dL
TG ([…], time 7 day): 119.6 mg/dL
TP ([…], time 7 day): 6.1 g/dL
gamma-GTP ([…], time 7 day): 1.6 IU/L
A/G ([…], time 14 day): 1.7
ALP ([…], time 14 day): 702.2 IU/L
ALT ([…], time 14 day): 32.4 IU/L
AST ([…], time 14 day): 62.8 IU/L
BUN ([…], time 14 day): 20 mg/dL
CRE ([…], time 14 day): 0.6 mg/dL
Ca ([…], time 14 day): 10.7 mg/dL
Cl ([…], time 14 day): 103.4 meq/L
DBIL ([…], time 14 day): 0.008 mg/dL
GLC ([…], time 14 day): 202.4 mg/dL
IP ([…], time 14 day): 8.3 mg/dL
K ([…], time 14 day): 4.4 meq/L
LDH ([…], time 14 day): 83.4 IU/L
Na ([…], time 14 day): 139.8 meq/L
PL ([…], time 14 day): 151.6 mg/dL
RALB ([…], time 14 day): 3.8 g/dL
TBIL ([…], time 14 day): 0.3 mg/dL
TC ([…], time 14 day): 79.6 mg/dL
TG ([…], time 14 day): 116.8 mg/dL
TP ([…], time 14 day): 6 g/dL
gamma-GTP ([…], time 14 day): 1.4 IU/L
A/G ([…], time 28 day): 1.8
ALP ([…], time 28 day): 534 IU/L
ALT ([…], time 28 day): 32.2 IU/L
AST ([…], time 28 day): 55.5 IU/L
BUN ([…], time 28 day): 20 mg/dL
CRE ([…], time 28 day): 0.6 mg/dL
Ca ([…], time 28 day): 11 mg/dL
Cl ([…], time 28 day): 105.8 meq/L
DBIL ([…], time 28 day): 0.01 mg/dL
GLC ([…], time 28 day): 201.8 mg/dL
IP ([…], time 28 day): 7.9 mg/dL
K ([…], time 28 day): 4.5 meq/L
LDH ([…], time 28 day): 83.2 IU/L
Na ([…], time 28 day): 139.5 meq/L
PL ([…], time 28 day): 141.8 mg/dL
RALB ([…], time 28 day): 4 g/dL
TBIL ([…], time 28 day): 0.3 mg/dL
TC ([…], time 28 day): 70.2 mg/dL
TG ([…], time 28 day): 133.8 mg/dL
TP ([…], time 28 day): 6.2 g/dL
gamma-GTP ([…], time 28 day): 0.5 IU/L

From ChEMBL document CHEMBL3885861, “Open TG-GATES”
